{
  "source": "patent US5002959A",
  "about": "“BU-4146T antibiotic” (Bristol-Myers Squibb Company, priority 1989, dated 1991)",
  "key": {"[1]": {"experiment": "Cytotoxicity of hydrogenated derivative", "format": "cell-based"}, "Fusarium moniliforme": {"system": "Fusarium moniliforme", "experiment": "Antifungal MIC by serial agar dilution method", "format": "cell-based", "conditions": "Fusarium verticillioides; strain A2284", "procedure": "(§1) The minimum inhibitory concentrations (MICs) of BU-4146T were determined against various bacteria and fungi by the serial agar dilution method. Nutrient agar (Eiken) was used for bacteria and Sabouraud dextrose agar (Difco) for fungi. The inoculum size was adjusted to 10^2 -10^4 cfu/ml for bacteria and 10^3 cfu/ml for fungi."}, "Aspergillus fumigatus": {"system": "Aspergillus fumigatus", "experiment": "Antifungal MIC by serial agar dilution method", "format": "cell-based", "procedure": "as §1"}, "Cryptococus neoformans": {"system": "Cryptococus neoformans", "experiment": "Antifungal MIC by serial agar dilution method", "format": "cell-based", "conditions": "Cryptococcus neoformans", "procedure": "as §1"}, "Blastomyces dermatidis": {"system": "Blastomyces dermatidis", "experiment": "Antifungal MIC by serial agar dilution method", "format": "cell-based", "conditions": "strain IF08144", "procedure": "as §1"}, "Sporothrix schenckii": {"system": "Sporothrix schenckii", "experiment": "Antifungal MIC by serial agar dilution method", "format": "cell-based", "conditions": "strain IF08158", "procedure": "as §1"}, "Aspergillus flavus": {"system": "Aspergillus flavus", "experiment": "Antifungal MIC by serial agar dilution method", "format": "cell-based", "conditions": "strain FA21436", "procedure": "as §1"}, "Candida albicans": {"system": "Candida albicans", "experiment": "Antifungal MIC by serial agar dilution method", "format": "cell-based", "procedure": "as §1"}, "[2]": {"system": "Trichophyton mentagrophytes", "experiment": "Antifungal MIC by serial agar dilution method", "format": "cell-based", "procedure": "as §1"}, "Mucor spinosus": {"system": "Mucor spinosus", "experiment": "Antifungal MIC by serial agar dilution method", "format": "cell-based", "conditions": "strain IF05317", "procedure": "as §1"}, "Petriellidium boydii": {"system": "Petriellidium boydii", "experiment": "Antifungal MIC by serial agar dilution method", "format": "cell-based", "conditions": "Scedosporium boydii; strain IF08078", "procedure": "as §1"}, "Piricularia oryzae": {"system": "Piricularia oryzae", "experiment": "microbe, parasite or virus in culture", "format": "cell-based"}, "fungi": {"system": "fungi", "experiment": "Antifungal activity as a whole (serial agar dilution)", "format": "cell-based", "conditions": "versus streptimidone", "procedure": "as §1"}, "Solubility": {"experiment": "Solubility", "format": "physicochemical"}, "[3]": {"system": "DNA synthesis in B16-F10 melanoma cells", "experiment": "Inhibition of macromolecule synthesis in B16-F10 melanoma cells: DNA", "format": "cell-based, murine", "conditions": "for IC50: Mus musculus, B16-F10, 3H-thymidine, 3.5 hours", "procedure": "(§2) Inhibitory effects of BU-4146T on the macromolecule (DNA, RNA and protein) synthesis were determined in cultured B16-FlO melanoma cells. B16-FlO cells (10^5 cells/ml) were incubated with the compound at 37° C. for 3.5 hours (for DNA synthesis) or 4 hours (for RNA and protein synthesis). Labelled presursor, ^3 H-thymidine, ^14 C-uridine or ^3 H-leucine was added to the culture and further incubated for 30 minutes (for DNA) or 60 minutes (for RNA and protein). After washing with chilled 5% trichloroacetic acid solution, the radio activity incorporated into the acid-insoluble fraction of the tumor cells was determined by a liquid scintillation counter."}, "[4]": {"system": "B16-F10 (murine melanoma) cells", "experiment": "In vitro cytotoxicity", "format": "cell-based", "conditions": "Mus musculus; B16-F10, 72 hours", "procedure": "(§3) B16-FIO, Moser and HCT-116 cells were harvested and implanted into wells of 96-well microtiter plate with test materials at the inoculum sizes of 3×10^4, 6×10^4 and 6×10^4 cell/ml, respectively. They were incubated at 37° C. in a humidified atmosphere of 5% carbon dioxide and 95% air for 72 hours. The cytotoxicity against the tumor cells was determined colorimetrically at 540 nm after staining viable cells."}, "[5]": {"system": "HCT-116 (human colon carcinoma) cells", "experiment": "In vitro cytotoxicity", "format": "cell-based", "conditions": "HCT-116, 72 hours", "procedure": "as §3"}, "[6]": {"system": "Moser (human colorectal carcinoma) cells", "experiment": "In vitro cytotoxicity", "format": "cell-based", "conditions": "72 hours", "procedure": "as §3"}, "Gram-positive bacteria": {"system": "Gram-positive bacteria", "experiment": "Antibacterial activity by serial agar dilution method", "format": "cell-based", "conditions": "at 100 mcg/ml", "procedure": "as §1"}, "Gram-negative bacteria": {"system": "Gram-negative bacteria", "experiment": "Antibacterial activity by serial agar dilution method", "format": "cell-based", "conditions": "at 100 mcg/ml", "procedure": "as §1"}, "[7]": {"system": "RNA synthesis in B16-F10 melanoma cells", "experiment": "Inhibition of macromolecule synthesis in B16-F10 melanoma cells: RNA", "format": "cell-based, murine", "conditions": "Mus musculus, 14C-uridine, 4 hours", "procedure": "as §2"}, "[8]": {"system": "protein synthesis in B16-F10 melanoma cells", "experiment": "Inhibition of macromolecule synthesis in B16-F10 melanoma cells: protein", "format": "cell-based, murine", "conditions": "Mus musculus, 3H-leucine, 4 hours", "procedure": "as §2"}, "[9]": {"system": "murine and human tumor cells (B16-F10, Moser, HCT-116)", "experiment": "In vitro cytotoxicity, comparison over the tumor cell lines", "format": "cell-based", "conditions": "versus mitomycin C; approximately", "procedure": "as §3"}, "[10]": {"conditions": "Trichophyton mentagrophytes, strain D155, read-out: MIC"}},
  "note": "Like-named read-outs stand apart in the source and are kept apart here.",
  "data": [
    {"molecule": "C/C(=C\\C(C)C(=O)CC(O)CC1CC(=O)NC(=O)C1)C1OC(=O)CCCCCCCCC1C", "note": "(stereo not shown) [hexahydro-BU-4146T]", "values": [
      {"measurement": "cytotoxicity", "setting": "[1]; in words", "result": "weak cytotoxicity"},
      {"measurement": "cytotoxicity, times weaker than that of BU-4146T", "setting": "[1]; versus BU-4146T", "result": "about one hundred"}
    ]},
    {"molecule": "C=C/C(C)=C/[C@H](C)C(=O)C[C@H](O)CC1CC(=O)NC(=O)C1", "note": "[Streptimidone, reference compound]", "values": [
      {"measurement": "MIC", "setting": "Fusarium moniliforme", "result": 50, "unit": "µg/mL"},
      {"measurement": "MIC", "setting": "Aspergillus fumigatus; strain IAM2034", "result": "> 100", "unit": "µg/mL"},
      {"measurement": "MIC", "setting": "Aspergillus fumigatus; strain IAM2530", "result": "> 100", "unit": "µg/mL"},
      {"measurement": "MIC", "setting": "Cryptococus neoformans; strain D49", "result": 50, "unit": "µg/mL"},
      {"measurement": "MIC", "setting": "Cryptococus neoformans; strain IAM4514", "result": 50, "unit": "µg/mL"},
      {"measurement": "MIC", "setting": "Blastomyces dermatidis", "result": "> 100", "unit": "µg/mL"},
      {"measurement": "MIC", "setting": "Sporothrix schenckii", "result": "> 100", "unit": "µg/mL"},
      {"measurement": "MIC", "setting": "Aspergillus flavus", "result": "> 100", "unit": "µg/mL"},
      {"measurement": "MIC", "setting": "Candida albicans; strain A9540", "result": "> 100", "unit": "µg/mL"},
      {"measurement": "MIC", "setting": "Candida albicans; strain IAM4888", "result": "> 100", "unit": "µg/mL"},
      {"measurement": "MIC", "setting": "[2]; [10]", "result": "> 100", "unit": "µg/mL"},
      {"measurement": "MIC", "setting": "[2]; strain No. 4329", "result": "> 100", "unit": "µg/mL"},
      {"measurement": "MIC", "setting": "Mucor spinosus", "result": "> 100", "unit": "µg/mL"},
      {"measurement": "MIC", "setting": "Petriellidium boydii", "result": "> 100", "unit": "µg/mL"},
      {"measurement": "MIC", "setting": "Piricularia oryzae; read-out: MIC", "result": "> 100", "unit": "µg/mL"}
    ]},
    {"molecule": "C/C(=C\\C(C)C(=O)CC(O)CC1CC(=O)NC(=O)C1)C1OC(=O)/C=C/CC/C=C/C=C\\C1C", "note": "(stereo not shown) [BU-4146T]", "values": [
      {"measurement": "MIC", "setting": "Fusarium moniliforme", "result": 0.8, "unit": "µg/mL"},
      {"measurement": "MIC", "setting": "Aspergillus fumigatus; strain IAM2034", "result": 1.6, "unit": "µg/mL"},
      {"measurement": "MIC", "setting": "Aspergillus fumigatus; strain IAM2530", "result": 0.8, "unit": "µg/mL"},
      {"measurement": "MIC", "setting": "Cryptococus neoformans; strain D49", "result": 3.1, "unit": "µg/mL"},
      {"measurement": "MIC", "setting": "Cryptococus neoformans; strain IAM4514", "result": 3.1, "unit": "µg/mL"},
      {"measurement": "MIC", "setting": "Blastomyces dermatidis", "result": 12.5, "unit": "µg/mL"},
      {"measurement": "MIC", "setting": "Sporothrix schenckii", "result": 100, "unit": "µg/mL"},
      {"measurement": "MIC", "setting": "Aspergillus flavus", "result": 3.1, "unit": "µg/mL"},
      {"measurement": "MIC", "setting": "Candida albicans; strain A9540", "result": "> 100", "unit": "µg/mL"},
      {"measurement": "MIC", "setting": "Candida albicans; strain IAM4888", "result": "> 100", "unit": "µg/mL"},
      {"measurement": "MIC", "setting": "[2]; [10]", "result": 100, "unit": "µg/mL"},
      {"measurement": "MIC", "setting": "[2]; strain No. 4329", "result": 100, "unit": "µg/mL"},
      {"measurement": "MIC", "setting": "Mucor spinosus", "result": 1.6, "unit": "µg/mL"},
      {"measurement": "MIC", "setting": "Petriellidium boydii", "result": 3.1, "unit": "µg/mL"},
      {"measurement": "MIC", "setting": "Piricularia oryzae", "result": 3.1, "unit": "µg/mL"},
      {"measurement": "antifungal activity, times more potent than streptimidone", "setting": "fungi", "result": "30-100 times"},
      {"measurement": "solubility in n-hexane", "setting": "Solubility; n-hexane", "result": "practically insoluble"},
      {"measurement": "solubility in acetonitrile, n-butanol, methanol, ethyl acetate, chloroform and dimethyl sulfoxide", "setting": "Solubility; organic solvents", "result": "readily soluble"},
      {"measurement": "solubility in water", "setting": "Solubility; water", "result": "practically insoluble"},
      {"measurement": "IC50", "setting": "[3]", "result": 0.023, "unit": "µg/mL"},
      {"measurement": "potency in DNA and protein synthesis, times higher than in RNA synthesis", "setting": "[3]; in terms of IC50, DNA and protein versus RNA", "result": "~200", "unit": "times"},
      {"measurement": "IC50", "setting": "[4]", "result": 0.03, "unit": "µg/mL"},
      {"measurement": "IC50", "setting": "[5]", "result": 0.014, "unit": "µg/mL"},
      {"measurement": "IC50", "setting": "[6]", "result": 0.047, "unit": "µg/mL"},
      {"measurement": "inhibitory activity against Gram-positive bacteria", "setting": "Gram-positive bacteria", "result": "did not show inhibitory activity"},
      {"measurement": "inhibitory activity against Gram-negative bacteria", "setting": "Gram-negative bacteria", "result": "did not show inhibitory activity"},
      {"measurement": "IC50", "setting": "[7]", "result": 4.2, "unit": "µg/mL"},
      {"measurement": "IC50", "setting": "[8]", "result": 0.024, "unit": "µg/mL"},
      {"measurement": "IC50 values, times superior to those of mitomycin C", "setting": "[9]", "result": "20-60 times"}
    ]},
    {"molecule": "CO[C@@]12[C@H](COC(N)=O)C3=C(C(=O)C(C)=C(N)C3=O)N1C[C@@H]1N[C@@H]12", "note": "[Mitomycin C, reference compound]", "values": [
      {"measurement": "IC50", "setting": "[3]", "result": 1.6, "unit": "µg/mL"},
      {"measurement": "IC50", "setting": "[7]", "result": 11, "unit": "µg/mL"},
      {"measurement": "IC50", "setting": "[8]", "result": 60, "unit": "µg/mL"}
    ]}
  ]
}
